Experimental findings from patent US8008488B2 (Abbott GmbH & Co. KG, priority 2003, dated 2011) are described below.

Assay [1] concerns the target T1, human dopamine D3 receptors (Homo sapiens, UniProt P35462).
T1 construct: expressed in transfected cells
Nature of the assay: Dopamine D3 receptor binding, displacement of [125I]-iodosulpride. The conditions noted are these: membranes from HEK-293 cells with stably expressed human D3 receptors, 0.1 nM [125I]-iodosulpride. Here is the method: (§1) The substance to be tested was dissolved either in methanol/Chremophor® (BASF-AG) or in dimethyl sulfoxide and then diluted with water to the desired concentration.
(§2) Triplicate mixtures were carried out.
The incubation buffer contained 50 mM Tris, 120 mM NaCl, 5 mM KCl, 2 mM CaCl2, 2 mM MgCl2 and 0.1% bovine serum albumin, 10 μM quinolone, 0.1% ascorbic acid (prepared fresh each day). The buffer was adjusted to pH 7.4 with HCl.
(§3) Measurement and Evaluation:
(§4) After incubation at 25° C. for 60 minutes, the mixtures were filtered under vacuum through Whatman GF/B glass fiber filters using a cell harvester. The filters were transferred by a filter transfer system into scintillation vials. After addition of 4 ml of Ultima Gold® (Packard), the samples were shaken for one hour and then the radioactivity was calculated in a beta counter (Packard, Tricarb 2000 or 2200CA). The cp values were converted into dpm by means of a standard quench series with the aid of the instrument's own program.
(§5) Evaluation of the inhibition plots took place by iterative nonlinear regression analysis using the Statistical Analysis System (SAS) similar to the “LIGAND” program described by Munson and Rodbard.
A general note: Displacement assays read how much labelled ligand stays bound in the presence of the test substance.

The target of assay [2] is T2, human dopamine D2L receptors (long isoform) (Homo sapiens, UniProt P14416).
T2 construct: expressed in transfected cells
T2 sequence (P14416 whole entry, canonical isoform): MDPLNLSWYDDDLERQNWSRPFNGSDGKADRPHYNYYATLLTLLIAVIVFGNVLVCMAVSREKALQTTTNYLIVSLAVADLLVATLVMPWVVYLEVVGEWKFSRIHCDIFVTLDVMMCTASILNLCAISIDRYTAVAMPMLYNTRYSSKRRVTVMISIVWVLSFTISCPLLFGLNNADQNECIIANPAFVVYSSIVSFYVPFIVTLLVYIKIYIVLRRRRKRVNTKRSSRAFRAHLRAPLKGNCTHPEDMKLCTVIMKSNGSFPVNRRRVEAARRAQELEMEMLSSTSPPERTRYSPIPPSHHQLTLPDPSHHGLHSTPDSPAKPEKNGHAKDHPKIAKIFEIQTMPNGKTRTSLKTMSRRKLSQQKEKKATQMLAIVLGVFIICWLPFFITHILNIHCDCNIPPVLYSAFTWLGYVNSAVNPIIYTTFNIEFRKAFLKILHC
Nature of the assay: Dopamine D2L receptor binding, displacement of [125I]-iodospiperone. The conditions noted are these: *Ki(D2L)/Ki(D3), HEK-293 membranes, 0.01 nM [125I]-iodospiperone. As for the experimental part: as §1, §2
The incubation buffer contained 50 mM Tris, 120 mM NaCl, 5 mM KCl, 2 mM CaCl2, 2 mM MgCl2 and 0.1% bovine serum albumin. The buffer was adjusted to pH 7.4 with HCl.
as §3, §4, §5

Where a name gives a salt, the structure may show the parent alone.

T1 sequence (P35462 whole entry): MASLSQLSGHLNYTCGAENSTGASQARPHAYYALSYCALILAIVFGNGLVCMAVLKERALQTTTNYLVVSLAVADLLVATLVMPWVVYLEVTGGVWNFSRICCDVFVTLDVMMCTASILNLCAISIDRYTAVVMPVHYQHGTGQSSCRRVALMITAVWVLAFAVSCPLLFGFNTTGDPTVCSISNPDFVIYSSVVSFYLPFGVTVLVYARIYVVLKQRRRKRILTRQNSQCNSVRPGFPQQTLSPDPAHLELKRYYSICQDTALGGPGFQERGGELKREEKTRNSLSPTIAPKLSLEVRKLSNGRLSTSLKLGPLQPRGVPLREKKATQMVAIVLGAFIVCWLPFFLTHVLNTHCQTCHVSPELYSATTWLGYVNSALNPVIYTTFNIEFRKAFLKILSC

As usually defined, the Ki is the equilibrium dissociation constant of an inhibitor or competing ligand from its target. High values mean weaker binding, low ones tighter binding. On to `O=c1ccn(CCCCN2CCN(c3cccc(Cl)c3Cl)CC2)c(=O)[nH]1` [Example 78, 1-{4-[4-(2,3-Dichlorophenyl)piperazin-1-yl]butyl}-1H-pyrimidine-2,4-dione], for which the affinity in assay [1] corresponds to a Ki of 0.32 nM. In addition, the “Selectivity D3 vs. D2L*” value in assay [2] is 48.
Taken in the same sequence, the figures for `CCCc1cc(N2CCN(CCCCn3ccc(-c4cccc(C)c4)nc3=O)CC2)nc(C(C)(C)C)n1` [Example 59, 1-{4-[4-(2-tert-Butyl-6-propylpyrimidin-4-yl)piperazin-1-yl]butyl}-4-(m-tolyl)-1H-pyrimidin-2-one] were 1.8 nM and 44.
Taken in the same sequence, the figures for `Cc1cn(CC(C)CCN2CCN(c3cc(C(F)(F)F)nc(C(C)(C)C)n3)CC2)c(=O)[nH]c1=O` (centres unmarked) [Example 37, 1-(4-{4-[2-tert-Butyl-6-(trifluoromethyl)pyrimidin-4-yl]piperazin-1-yl}-2-methylbutyl)-5-methylpyrimidine-2,4(1H,3H)-dione] were 3.24 nM and 126.
Taken in the same sequence, the figures for `CCCc1cc(N2CCN(CCCCn3ccc(-c4ccco4)nc3=O)CC2)nc(C(C)(C)C)n1` [Example 50, 1-{4-[4-(2-tert-Butyl-6-propylpyrimidin-4-yl)piperazin-1-yl]butyl}-4-furan-2-yl-1H-pyrimidin-2-one] were 0.72 nM and 77.
Consider `Cc1ccn(CCCCN2CCN(c3cc(C(C)C)nc(C(C)(C)C)n3)CC2)c(=O)n1.Cl` [Example 39, 4-(2-tert-Butyl-6-isopropylpyrimidin-4-yl)-1-[4-(4-methyl-2-oxopyrimidin-1 (2H)-yl)butyl]piperazin-1-ium chloride], for which the Ki in assay [1] came to 6.09 nM. The “Selectivity D3 vs. D2L*” value in assay [2] stood at 66.
The matching figures for `Cc1cn(CCCC(C)N2CCN(c3cc(C(F)(F)F)nc(C(C)(C)C)n3)CC2)c(=O)[nH]c1=O` (centres unmarked) [Example 54, 1-{4-[4-(2-tert-Butyl-6-trifluoromethylpyrimidin-4-yl)piperazin-1-yl]pentyl}-5-methyl-1H-pyrimidine-2,4-dione]: 9.25 nM and 52.
Taken in the same sequence, the figures for `CCCc1cc(N2CCN(CCCCn3ccc(O)nc3=O)CC2)nc(C(C)(C)C)n1` [Example 20, 1-{4-[4-(2-tert-Butyl-6-propylpyrimidin-4-yl)piperazin-1-yl]butyl}-4-hydroxypyrimidin-2(1H)-one] were 1.87 nM and 108.
Taken in the same sequence, the figures for `CC(=O)O.CCCc1cc(N2CCN(CCCCn3cc(Cl)c(=O)[nH]c3=O)CC2)nc(C(C)(C)C)n1` [Example 77, 4-(2-tert-Butyl-6-propylpyrimidin-4-yl)-1-[4-(5-chloro-2,4-dioxo-3,4-dihydro-2H-pyrimidin-1-yl)butyl]piperazin-1-ium acetate] were 0.74 nM and 150.
For `CCCc1cc(N2CCN(CCCCn3cc(C#N)c(=O)[nH]c3=O)CC2)nc(C(C)(C)C)n1` [Example 47, 1-{4-[4-(2-tert-Butyl-6-propylpyrimidin-4-yl)piperazin-1-yl]butyl}-2,4-dioxo-1,2,3,4-tetrahydropyrimidine-5-carbonitrile], the Ki in assay [1] amounted to 4.87 nM. Moreover, the “Selectivity D3 vs. D2L*” value in assay [2] stood at 51.
Taken in the same sequence, the figures for `Cc1cn(CCCCN2CCN(c3cc(C(C)(C)C)nc(C(C)(C)C)n3)CC2)c(=O)nc1O` [Example 9, 1-{4-[4-(2,6-ditert-Butylpyrimidin-4-yl)piperazin-1-yl]butyl}-4-hydroxy-5-methylpyrimidin-2(1H)-one] were 0.74 nM and 53.
`Cc1cn(CCCCN2CCN(c3cc(C(F)(F)F)nc(C(C)(C)C)n3)CC2)c(=O)nc1O.Cl` [Example 5, 1-[2-tert-Butyl-6-(trifluoromethyl)pyrimidin-4-yl]-4-[4-(4-hydroxy-5-methyl-2-oxopyrimidin-1 (2H)-yl)butyl]piperazin-4-ium chloride] registered a Ki in assay [1] of 1.3 nM. The “Selectivity D3 vs. D2L*” value in assay [2] stood at 246.
Taken in the same sequence, the figures for `CC(C)c1ccn(CCCCN2CCN(c3cc(C(F)(F)F)nc(C(C)(C)C)n3)CC2)c(=O)n1` [Example 97, 4-(2-tert-Butyl-6-trifluoromethylpyrimidin-4-yl)-1-[4-(4-isopropyl-2-oxo-2H-pyrimidin-1-yl)butyl]piperazin-1-ium fumarate] were 4.26 nM and 58.
On to `CC(C)(C)c1nc(N2CCN(CCCCn3ccc(O)nc3=O)CC2)cc(C(F)(F)F)n1` [Example 13], for which the affinity in assay [1], expressed as Ki, was 1.88 nM. The “Selectivity D3 vs. D2L*” value in assay [2] stood at 104.
Taken in the same sequence, the figures for `CCCc1cc(N2CCN(CCCCn3ccc(-c4ccccc4)nc3=O)CC2)nc(C(C)(C)C)n1` [Example 49, 1-{4-[4-(2-tert-Butyl-6-propylpyrimidin-4-yl)piperazin-1-yl]butyl}-4-phenyl-1H-pyrimidin-2-one] were 0.54 nM and 86.
For `Cc1cn(CCCCN2CCN(c3cc(C(C)C)nc(C(C)(C)C)n3)CC2)c(=O)[nH]c1=O.Cl` [Example 40, 4-(2-tert-Butyl-6-isopropylpyrimidin-4-yl)-1-[4-(5-methyl-2,4-dioxo-3,4-dihydro-2H-pyrimidin-1-yl)-butyl]piperazin-1-ium chloride], in assay [1], the affinity corresponds to a Ki of 2.12 nM. The “Selectivity D3 vs. D2L*” value in assay [2] stood at 67.
As for `CC(=O)O.CC(C)(C)c1nc(N2CCN(CCCCn3ccc(C4CC4)nc3=O)CC2)cc(C(F)(F)F)n1` [Example 94, 4-(2-tert-Butyl-6-trifluoromethylpyrimidin-4-yl)-1-[4-(4-cyclopropyl-2-oxo-2H-pyrimidin-1-yl)butyl]piperazin-1-ium acetate], the affinity in assay [1] corresponds to a Ki of 4.28 nM. Further, the “Selectivity D3 vs. D2L*” value in assay [2] turned out to be 36.
In turn, `Cc1cc(N2CCN(CCCCn3cc(C)c(O)nc3=O)CC2)nc(C(C)(C)C)n1` [Example 29, 1-{4-[4-(2-tert-Butyl-6-methylpyrimidin-4-yl)piperazin-1-yl]butyl}-4-hydroxy-5-methylpyrimidin-2(1H)-one] showed a Ki in assay [1] of 7.64 nM. Besides, in assay [2], the “Selectivity D3 vs. D2L*” value is on record as 67.
In turn, `CC(C)(C)c1nc(N2CCN(CCCCn3ccc(-c4ccccc4F)nc3=O)CC2)cc(C(F)(F)F)n1` [Example 67, 4-(2-tert-Butyl-6-trifluoromethylpyrimidin-4-yl)-1-{4-[4-(2-fluorophenyl)-2-oxo-2H-pyrimidin-1-yl]butyl}piperazin-1-ium fumarate] displayed a Ki in assay [1] of 10.1 nM. Besides, in assay [2], the “Selectivity D3 vs. D2L*” value turned out to be 39.
Take `Cc1cn(CCCCN2CCN(c3cc(C4CCC4)nc(C(C)(C)C)n3)CC2)c(=O)nc1O` [Example 22, 1-{4-[4-(2-tert-Butyl-6-cyclobutylpyrimidin-4-yl)piperazin-1-yl]butyl}-4-hydroxy-5-methylpyrimidin-2(1H)-one]: the Ki in assay [1] came to 1.16 nM. In addition, in assay [2], the “Selectivity D3 vs. D2L*” value turned out to be 77.
Taken in the same sequence, the figures for `CC(C)(C)c1nc(C2CCC2)cc(N2CCN(CCCCn3ccc(=O)[nH]c3=O)CC2)n1` [Example 23, 1-{4-[4-(2-tert-Butyl-6-cyclobutylpyrimidin-4-yl)piperazin-1-yl]butyl}pyrimidine-2,4(1H,3H)-dione] were 1.51 nM and 63.
In turn, `CC(C)(C)c1nc(N2CCN(CCCCn3ccc(-c4ccsc4)nc3=O)CC2)cc(C(F)(F)F)n1` [Example 92, 4-(2-tert-Butyl-6-trifluoromethylpyrimidin-4-yl)-1-[4-(2-oxo-4-thiophen-3-yl-2H-pyrimidin-1-yl)butyl]piperazin-1-ium fumarate] yielded a Ki in assay [1] of 4.56 nM. Further, the “Selectivity D3 vs. D2L*” value in assay [2] was 31.
Consider `Cc1cnc(=O)n(CCCCN2CCN(c3cc(C(F)(F)F)nc(C(C)(C)C)n3)CC2)c1` [Example 6, 1-(4-{4-[2-tert-Butyl-6-(trifluoromethyl)pyrimidin-4-yl]piperazin-1-yl}butyl)-5-methylpyrimidin-2(1H)-one], for which, in assay [1], the affinity corresponds to a Ki of 31.2 nM. Further, the “Selectivity D3 vs. D2L*” value in assay [2] is 35.
The matching figures for `CCCc1cc(N2CCN(CCCCn3cc(C(F)(F)F)c(=O)[nH]c3=O)CC2)nc(C(C)(C)C)n1` [Example 56, 1-{4-[4-(2-tert-Butyl-6-propylpyrimidin-4-yl)piperazin-1-yl]butyl}-5-trifluoromethyl-1H-pyrimidine-2,4-dione]: 1.02 nM and 134.
Compound `CCCc1cc(N2CCN(CCCCn3ccc(C4CCC4)nc3=O)CC2)nc(C(C)(C)C)n1` [Example 74, 1-{4-[4-(2-tert-Butyl-6-propylpyrimidin-4-yl)piperazin-1-yl]butyl}-4-cyclobutyl-1H-pyrimidin-2-one] came in with a Ki in assay [1] of 1.52 nM. For the same compound, in assay [2], the “Selectivity D3 vs. D2L*” value is given as 53.
Taken in the same sequence, the figures for `CCCc1cc(N2CCN(CCCCn3ccc(C(C)C)nc3=O)CC2)nc(C(C)(C)C)n1` [Example 98, 4-(2-tert-Butyl-6-propylpyrimidin-4-yl)-1-[4-(4-isopropyl-2-oxo-2H-pyrimidin-1-yl)butyl]piperazine 1-fumarate] were 1.62 nM and 59.
